Values of other authors, collected in US20030228369A1, “Process for conversion of high viscosity fluids and compositions thereof” (priority 2002, published 2003).

Settings: pH about 1.2

## CC(C)=CCC1=C(O)[C@](O)(CC=C(C)C)C(=O)C(C(=O)CC(C)C)=C1O [humulon]
  solubility at pH of the stomach / gastric fluid: not soluble
